Reference: patent US10166218B2, “3-(1H-indol-2-yl)-1H-pyrazolo[3,4-C]pyridines and therapeutic uses thereof” (Samumed, LLC, priority 2015, dated 2019)

Columns and labels:
Type in all cases: cell-based
[1] = tested on: Wnt activity (Sp5-Luc reporter, TCF/LEF binding sites) in SW480 colon carcinoma cells; assay: Screening assay for Wnt activity: Sp5-Luc reporter gene assay in stably transduced SW480 cells; settings: Homo sapiens, overnight incubation
Text: The screening assay for Wnt activity is described as follows. Reporter cell lines can be generated by stably transducing cancer cell lines (e.g., colon cancer) or primary cells (e.g., IEC-6 intestinal cells) with a lentiviral construct that includes a Wnt-responsive promoter driving expression of the firefly luciferase gene.
SW480 colon carcinoma cells were transduced with a lentiviral vector expressing luciferase with a human Sp5 promoter consisting of a sequence of eight TCF/LEF binding sites. SW480 cells stably expressing the Sp5-Luc reporter gene and a hygromycin resistance gene were selected by treatment with 150 μg/mL of hygromycin for 7 days. These stably transduced SW480 cells were expanded in cell culture and used for all further screening activities. Each compound was dissolved in DMSO as a 10 mM stock and used to prepare compound source plates. Serial dilution (1:3, 10-point dose-response curves starting from 10 μM) and compound transfer was performed using the ECHO 550 (Labcyte, Sunnyvale, Calif.) into 384-well white solid bottom assay plates (Greiner Bio-One) with appropriate DMSO backfill for a final DMSO concentration of 0.1%. For Sp5-Luc reporter gene assays, the cells were plated at 4,000 cells/well in 384-well plates with medium containing 1% fetal bovine serum and incubated overnight at 37° C. and 5% CO2. Following incubation, 20 μl of BrightGlo luminescence reagent (Promega) was added to each well of the 384-well assay plates. The plates were placed on an orbital shaker for 2 min and then luminescence was quantified using the Envision (Perkin Elmer) plate reader. Readings were normalized to DMSO only treated cells, and normalized activities were utilized for EC50 calculations using the dose-response log (inhibitor) vs. response-variable slope (four parameters) nonlinear regression feature available in GraphPad Prism 5.0 (or Dotmatics). For EC50 of >10 μM, the percent inhibition at 10 μM is provided.

SW480 colon cancer cells = assay: Cell viability assay (CellTiter-Blue) in SW480 colon cancer cells; settings: Homo sapiens, 96 h, four days, CellTiter-Blue
Procedure: Representative compounds were screened using the following assay procedure to assess the effect on cell viability as described below.
Each compound was dissolved in DMSO as a 10 mM stock and used to prepare compound source plates. Serial dilution (1:3, 8-point dose-response curves from 10 μM to 0.0045 μM) and compound transfer was performed using the ECHO 550 (Labcyte, Sunnyvale, Calif.) into 96-well clear bottom, black-walled plates (Corning-Costar).
Approximately 2×10^3 SW480 colon cancer cells were seeded into each well and allowed to incubate in the presence or absence of compound for four days at 37° C./5% CO2. Eight replicates of DMSO-treated cells served as controls and cells treated with compound were performed in duplicate.
After incubation, 20 μL of CellTiter-Blue (Promega) was added to each well allowed to incubate for approximately 3 hours. This reagent was a buffered solution which contains resazurin, metabolically active cells were able to reduce rezarurin (blue) into resorufin (pink) which was highly fluorescent. This measured fluorescence was used as a readout for cell viability.
After incubation, the plates were read at Ex 560 nm Em 590 nm (Cytation 3, BioTek). Dose-response curves were generated and EC50 concentration values were calculated using non-linear regression curve fit in the GraphPad Prism (San Diego, Calif.) or Dotmatics' Studies Software (Bishops Stortford, UK). For EC50 of >10 μM, the percent inhibition at 10 μM is provided.

[2] = tested on: primary human fibroblasts derived from IPF patients (LL29 cells) treated with TGF-β1; α-smooth muscle actin (αSMA); assay: Inhibition of the fibrotic process: αSMA staining in TGF-β1 treated primary human fibroblasts from IPF patients (LL29 cells); settings: Fibroblast, 96 h, TGF-β1 20 ng/mL, 4 days, % cells positive for αSMA
Text: Representative compounds were screened using primary human fibroblasts (derived from IPF patients) treated with TGF-β1 to determine their ability to inhibit the fibrotic process.
Primary human fibroblasts derived from IPF patients (LL29 cells) [^1Xiaoqiu Liu, et. al., “Fibrotic Lung Fibroblasts Show Blunted Inhibition by cAMP Due to Deficient cAMP Response Element-Binding Protein Phosphorylation”, Journal of Pharmacology and Experimental Therapeutics (2005), 315(2), 678-687; ^2Watts, K. L., et. al., “RhoA signaling modulates cyclin D1 expression in human lung fibroblasts; implications for idiopathic pulmonary fibrosis”, Respiratory Research (2006), 7(1), 88] were obtained from American Type Culture Collection (ATCC) and expanded in F12 medium supplemented with 15% Fetal Bovine Serum and Penicillin/Streptomycin.
Each compound was dissolved in DMSO as a 10 mM stock and used to prepare compound source plates. Serial dilution (1:2, 11-point dose-response curves from 10 μM to 1.87 nM) and compound transfer was performed using the ECHO 550 (Labcyte, Sunnyvale, Calif.) into 384-well clear bottom assay plates (Greiner Bio-One) with appropriate DMSO backfill for a final DMSO concentration of 0.1%. LL29 cells are plated at 1,500 cells/well in 80 μL/well F12 medium supplemented with 1% Fetal Bovine Serum. One hour after addition of the cells, TGF-β1 (Peprotech; 20 ng/mL) was added to the plates to induce fibrosis (ref. 1 and 2 above). Wells treated with TGF-β1 and containing DMSO were used as controls. Cells were incubated at 37° C. and 5% CO2 for 4 days. Following incubation for 4 days, SYTOX green nucleic acid stain (Life Technologies [Thermo Fisher Scientific]) was added to the wells at a final concentration of 1 μM and incubated at room temperature for 30 min. Cells were then fixed using 4% formaldehyde (Electron Microscopy Sciences), washed 3 times with PBS followed by blocking and permeabilization using 3% Bovine Serum Albumin (BSA; Sigma) and 0.3% Triton X-100 (Sigma) in PBS. Cells were then stained with antibody specific to α-smooth muscle actin (αSMA; Abcam) (ref. 1 and 2 above) in 3% Bovine Serum Albumin (BSA; Sigma) and 0.3% Triton X-100 (Sigma) in PBS, and incubated overnight at 4° C. Cells were then washed 3 times with PBS, followed by incubation with Alexa Flor-647 conjugated secondary antibody (Life Technologies [Thermo Fisher Scientific]) and DAPI at room temperature for 1 hour. Cells were then washed 3 times with PBS and plates were sealed for imaging. αSMA staining was imaged by excitation at 630 nm and emission at 665 nm and quantified using the Compartmental Analysis program on the CellInsight CX5 (Thermo Scientific). Dead or apoptotic cells were excluded from analysis based on positive SYTOX green staining. % of total cells positive for αSMA were counted in each well and normalized to the average of 11 wells treated with TGF-β1 on the same plate using Dotmatics' Studies Software. The normalized averages (fold change over untreated) of 3 replicate wells for each compound concentration were used to create dose-responses curves and EC50 values were calculated using non-linear regression curve fit in the Dotmatics' Studies Software. For EC50 of >10 μM, the percent inhibition at 10 μM is provided.

IL-6 (THP-1 cells) = assay: Inhibition of IL-6 in LPS-stimulated THP-1 human monocyte cells (HTRF); settings: inhibition of IL-6 in LPS-stimulated THP-1 cells, HTRF, 10-point dose-response starting from 10 μM
Procedure: Human monocyte cell line (THP-1 cells; Catalog # TIB-202, ATCC, Manassas, Va.) were cultured in Roswell Park Memorial Institute (RPMI) 1640 Medium (Catalog #21870-100, Buffalo, N.Y.) with 1% L-glutamine, 1% HEPES, 1% Sodium Pyruvate, 2% Sodium Bicarbonate supplemented with 100 units/mL penicillin, 50 μg/mL streptomycin, 2-mercaptoethanol (0.05 mM) [basal medium] and 10% fetal bovine serum (Catalog #16140089, Life Technologies, Carlsbad, Calif.) at 37° C. and 5% CO2.
THP-1 cells were cultured in basal media with 1% FBS for 24 hours before the start of the assay. Each compound was dissolved in DMSO as a 10 mM stock and used to prepare compound source plates. Serial dilution (1:3, 10-point dose-response curves starting from 10 μM) and compound transfer was performed using the ECHO 550 (Labcyte, Sunnyvale, Calif.) into 384-well white low volume assay plates (Greiner Bio-One) with appropriate DMSO backfill for a final DMSO concentration of 0.1%. THP-1 cells were plated at 5000 cells/well in the 384-well plates and incubated at 37° C. for 2 h. 500 ng/mL of LPS was added after 2 hours and cells were incubated for another 22 hours at 37° C. Plates were spun in a centrifuge for 1 minute at […] and a mixture of anti-IL6 XL665, and anti-IL6 Cryptate diluted in reconstitution buffer (Cisbio Inc.) was added to each well. Following incubation for 3 hrs at room temperature, Homogeneous Time-Resolved Fluorescence (HTRF) was measured using the Envision (Perkin Elmer) at 665 nm and […]. The ratio of fluorescence at 665 nm to 620 nm was used as a readout for IL6 quantification. All samples were processed in duplicate. Readings were normalized to DMSO treated cells and normalized activities were utilized for EC50 calculations using the dose-response log (inhibitor) vs. response-variable slope (four parameters) nonlinear regression feature available in GraphPad Prism 5.0 (or Dotmatics). For EC50 of >10 μM, the percent inhibition at 10 μM is provided.

Structure (SMILES) | EC50 [1] [nM] | EC50 (SW480 colon cancer cells) [nM] | EC50 [2] [nM] | EC50 (IL-6 (THP-1 cells)) [nM]
CC(C)Nc1cncc(-c2cc3c(-c4cc5c(-c6ccncc6)cccc5[nH]4)n[nH]c3cn2)c1 [Compound 124, N-Isopropyl-5-(3-(4-(pyridin-4-yl)-1H-indol-2-yl)-1H-pyrazolo[3,4-c]pyridin-5-yl)pyridin-3-amine] | 108 | 5830 | 138 | 3350
c1ccc(-c2cc3c(-c4cc5c(-c6ccncc6)cccc5[nH]4)n[nH]c3cn2)nc1 [Compound 140, 5-(Pyridin-2-yl)-3-(4-(pyridin-4-yl)-1H-indol-2-yl)-1H-pyrazolo[3,4-c]pyridine] | 485 | 370 | 319 | 481
O=C(Cc1ccccc1)Nc1cncc(-c2cc3c(-c4cc5c(-c6ccccn6)cccc5[nH]4)n[nH]c3cn2)c1 [Compound 150, 2-Phenyl-N-(5-(3-(4-(pyridin-2-yl)-1H-indol-2-yl)-1H-pyrazolo[3,4-c]pyridin-5-yl)pyridin-3-yl)acetamide] | 1420 | 2970 | 531 | 2020
O=C(Nc1cncc(-c2cc3c(-c4cc5c(-c6ccccn6)cccc5[nH]4)n[nH]c3cn2)c1)C1CCCCC1 [Compound 163, N-(5-(3-(4-(Pyridin-2-yl)-1H-indol-2-yl)-1H-pyrazolo[3,4-c]pyridin-5-yl)pyridin-3-yl)cyclohexanecarboxamide] | 550 | 938 | 81 | 2490
CC(C)CC(=O)Nc1cncc(-c2cc3c(-c4cc5c(N6CCCCC6)cccc5[nH]4)n[nH]c3cn2)c1 [Compound 170, 3-Methyl-N-(5-(3-(4-(piperidin-1-yl)-1H-indol-2-yl)-1H-pyrazolo[3,4-c]pyridin-5-yl)pyridin-3-yl)butanamide] | 1330 | 4650 | 902 | 4290
CCNCc1cncc(-c2cc3c(-c4cc5c(N6CCCCC6)cccc5[nH]4)n[nH]c3cn2)c1 [Compound 174, N-((5-(3-(4-(Piperidin-1-yl)-1H-indol-2-yl)-1H-pyrazolo[3,4-c]pyridin-5-yl)pyridin-3-yl)methyl)ethanamine] | 553 | 1080 | 650 | 167
CC(C)(C)C(=O)Nc1cncc(-c2cc3c(-c4cc5c(N6CCCCC6)cccc5[nH]4)n[nH]c3cn2)c1 [Compound 176, N-(5-(3-(4-(Piperidin-1-yl)-1H-indol-2-yl)-1H-pyrazolo[3,4-c]pyridin-5-yl)pyridin-3-yl)pivalamide] | 3040 | 7140 | 700 | 8890
CC(C)Nc1cncc(-c2cc3c(-c4cc5c(N6CCCCC6)cccc5[nH]4)n[nH]c3cn2)c1 [Compound 180, N-Isopropyl-5-(3-(4-(piperidin-1-yl)-1H-indol-2-yl)-1H-pyrazolo[3,4-c]pyridin-5-yl)pyridin-3-amine] | 362 | 1730 | 267 | 1000
c1ccc(-c2cc3c(-c4cc5c(N6CCCCC6)cccc5[nH]4)n[nH]c3cn2)nc1 [Compound 196, 3-(4-(Piperidin-1-yl)-1H-indol-2-yl)-5-(pyridin-2-yl)-1H-pyrazolo[3,4-c]pyridine] | 3420 | 6060 | 1160 | 8780
CN1CCN(c2cccc3[nH]c(-c4n[nH]c5cnc(-c6cncc(N)c6)cc45)cc23)CC1 [Compound 227, 5-(3-(4-(4-Methylpiperazin-1-yl)-H-indol-2-yl)-1H-pyrazolo[3,4-c]pyridin-5-yl)pyridin-3-amine] | 1160 | 2610 | 1910 | 1080
CN1CCN(c2cccc3[nH]c(-c4n[nH]c5cnc(-c6cncc(NC(=O)Cc7ccccc7)c6)cc45)cc23)CC1 [Compound 234, N-(5-(3-(4-(4-Methylpiperazin-1-yl)-H-indol-2-yl)-1H-pyrazolo[3,4-c]pyridin-5-yl)pyridin-3-yl)-2-phenylacetamide] | 1040 | 3130 | 1250 | 1940
